Measurements reported in patent US6361758B1, “Cosolvent formulations” (Abbott Laboratories, priority 1998, dated 2002).

Key:
[1] = Solubility of paracalcin in a cosolvent system; format: physicochemical; details: 25° C.
Protocol: An adequate amount of paracalcin was weighed and added to 10 ml of cosolvent contained in a 10 ml stoppered glass test tube. Two samples were prepared for each cosolvent composition. The test tubes containing samples were shaken in a 25° C. reciprocal shaking water bath at 100 rpm. Upon complete dissolution, an aliquot was filtered through a 0.45 micron syringe filter and the filtrate diluted 1:1 with 50% methanol. The resulting diluted material was measured for the content of paracalcin.

[2] = Stability of paracalcin in a cosolvent formulation; format: physicochemical; details: 5 μg/ml in 20% ethanol/30% propylene glycol/50% water
Protocol: Samples of paracalcin (5 μg/ml) in 20% ethanol/30% propylene glycol/50% water were prepared for stability testing. In an appropriate vessel, water for injection to approximately 30% of final volume is added. Propylene glycol is added to the vessel with mixing. In a separate container, the specified amount of paracalcin is dissolved in a portion of the ethanol (190 proof non-beverage), which is obtained from the total volume of ethanol specified for the batch, and added to the vessel with mixing. An additional aliquot of the batch ethanol is used to rinse the container and the rinsing solution is added to the vessel with mixing. The remaining alcohol is added to the vessel with mixing. Q.s. with water for injection to final volume and mix for approximately 30 minutes. The solution is filtered through a 0.45 micron membrane and dispensed into ampuls. Each ampul is flame sealed and autoclaved to F016.
One set of ampuls are tested (T=0) for percent paracalcin remaining in solution and served as control (i.e., 100% remaining). A second set of ampuls are stored at 40° C. and tested at 1, 2, and 3 months. A final set are stored at 30° C. and tested at 1, 2, 3, 6, 9, 12, 18, and 24 months. The results are shown in Table 2 as paracalcin remaining as a percent of control (T=0). Each time point represents 1 to 5 data points.

[3] = test system: Staphylococcus aureus, Escherichia coli, Pseudomonas aeruginosa, Candida albicans, Aspergillus niger; assay: USP 23 preservative effectiveness test; format: cell-based; details: added to the 20% ethanol/30% PG formulation; data not shown
Excerpt: Solutions of 20% ethanol, 30% propylene glycol, 20% ethanol/30% PG, 30ethanol/20% PG, and 40% ethanol/10% PG were passed through a 0.45 micro filter and tested by the USP 23 preservative effectiveness test as described in United States Pharmacopoeia 23-NF 18, 1995 Ed., Chapter 51, page 1681, which is incorporated herein by reference. Briefly, this involves inoculating the test solution with 10^5 to 10^6 test organisms per milliliter and then determining the number of surviving organisms after 7, 14, 21, and 28 days incubation at 20-25° C. using standard microbiological methods. Day 0 data is not required by USP 23 but was included in this study. A filtration and wash method was used to remove the inactivating agents for purposes of recovering the microorganisms, but other equivalent agents can also be validated for use. The USP test organisms include the bacteria Staphylococcus aureus, Escherichia coli, and Pseudomonas aeruginosa, a yeast (Candida albicans), and a mold (Aspergillus niger). […] The yeast and mold must not increase from the initial inoculum level. The initial inoculum level can either be calculated by knowing the stock culture concentration or by using a buffer control instead of the test solution.

Q: What does the source list for `C[C@H](/C=C/[C@H](C)C(C)(C)O)[C@H]1CC[C@H]2/C(=C/C=C3C[C@@H](O)C[C@H](O)C3)CCC[C@]12C` [paracalcin, 19-nor-1α,3β,25-trihydroxy-9,10-secoergosta-5,7(E),22(E)-triene]?
A: Paracalcin concentration in cosolvent (solubility) ([1]; Ethanol 0.00, Propylene glycol 0.302, Water 0.698): 0.58 µg/mL; Paracalcin concentration in cosolvent (solubility) ([1]; Ethanol 0.00, Propylene glycol 0.506, Water 0.494): 14.21 µg/mL; Paracalcin concentration in cosolvent (solubility) ([1]; Ethanol 0.100, Propylene glycol 0.257, Water 0.643): 2.88 µg/mL; Paracalcin concentration in cosolvent (solubility) ([1]; Ethanol 0.199, Propylene glycol 0.207, Water 0.594): 15.94 µg/mL; Paracalcin concentration in cosolvent (solubility) ([1]; Ethanol 0.201, Propylene glycol 0.308, Water 0.491): 72.90 µg/mL; Paracalcin concentration in cosolvent (solubility) ([1]; Ethanol 0.299, Propylene glycol 0.00, Water 0.701): 6.82 µg/mL; Paracalcin concentration in cosolvent (solubility) ([1]; Ethanol 0.347, Propylene glycol 0.102, Water 0.551): 119.37 µg/mL; Paracalcin concentration in cosolvent (solubility) ([1]; Ethanol 0.498, Propylene glycol 0.00, Water 0.502): 601.63 µg/mL; paracalcin remaining as a percent of control (T=0) ([2]; 30° C., 0 months (Initial), autoclaved ampuls): 100% of control; paracalcin remaining as a percent of control (T=0) ([2]; 30° C., 1 month): 96% of control; paracalcin remaining as a percent of control (T=0) ([2]; 30° C., 2 months): 96% of control; paracalcin remaining as a percent of control (T=0) ([2]; 30° C., 3 months): 97% of control; paracalcin remaining as a percent of control (T=0) ([2]; 30° C., 6 months): 96% of control; paracalcin remaining as a percent of control (T=0) ([2]; 30° C., 9 months): 97% of control; paracalcin remaining as a percent of control (T=0) ([2]; 30° C., 12 months): 100% of control; paracalcin remaining as a percent of control (T=0) ([2]; 30° C., 18 months): 97% of control; paracalcin remaining as a percent of control (T=0) ([2]; 30° C., 24 months): 96% of control; paracalcin remaining as a percent of control (T=0) ([2]; 40° C., 0 months (Initial), autoclaved ampuls): 100% of control; paracalcin remaining as a percent of control (T=0) ([2]; 40° C., 1 month): 96% of control; paracalcin remaining as a percent of control (T=0) ([2]; 40° C., 2 months): 96% of control; paracalcin remaining as a percent of control (T=0) ([2]; 40° C., 3 months): 98% of control; effect of addition of paracalcin on the preservative effect of the formulation [3]: no effect
